Measurements taken from US5935606A, “Reversing excitotoxic CNS damage by cellular implantation” (priority 1995, dated 1999).

Assays:
[1] = test system: NMDA receptor; experiment: NMDA-induced mechanical hyperalgesia (Randall-Selitto test) in rats with spinal subarachnoid transplants; assay type: in vivo, rat; conditions: for effect of antagonist pretreatment on NMDA dose-response curve, noxious mechanical stimuli, compared to saline pretreatment: adrenal medullary transplanted animals, s.c. 20 min prior to NMDA (2.5, 5.0, 10.0 nmol), naloxone 2.0 mg/kg, phentolamine 10.0 mg/kg
Protocol: Experimental procedures were approved and carried out in accordance the Guidelines of the Animal Care Committee, University of Illinois at Chicago. Male Sprague-Dawley rats weighing 325-375 g (Sasco, Madison, Wis.) at the beginning of the study were used as both graft donors and recipients. Graft recipients were anesthetized (Nembutal, 40 mg/kg, i.p., supplemented as necessary) and implanted with intrathecal catheters according to methods described by Yaksh and Rudy [T. L. Yaksh and T. A. Rudy, Physiol. Behav., 17:1031-1036 (1976)]. Catheters were made of PE10 tubing with a knot sealed with dental acrylic at 7.5 cm. The catheters were threaded through a slit in the atlanto-occipital membrane to the lumbar spinal subarachnoid space, and the free ends were anchored to the skull using cyanoacrylate. Donor adrenal medullary tissue was dissected from cortical tissue and cut into small pieces (<0.5 cm^3). Adrenal medullary tissue from two adrenal glands was used as this amount was shown in previous studies to produce significant antinociception using several behavioral tests [A. T. Hama and J. Sagen, Pain, 52:223-231 (1993); J. Sagen et al., Pain, 42:69-79 (1990); H. Wang and J. Sagen, J. Neural Transplant. Plastic., 5:49-64 (1994)]. Control animals received equal volumes of striated muscle tissue from donors. […]
(§1) Animals were allowed to recover from surgical procedures for two weeks prior to commencement of behavioral testing. Responses to noxious and innocuous stimuli were determined using three tests sequentially: the Hargreaves model for thermal hyperalgesia [K. M. Hargreaves et al., Pain, 32:223-231 (1988)], the Randall-Selitto test for mechanical hyperalgesia, and von Frey thresholds for tactile allodynia. […] The apparatus automatically terminates at a scale reading of 25 (=1000 g). […]
(§2) The first group of animals was used in order to determine the time course and dose-responsiveness to intrathecally injected NMDA. […] Baseline responses to all three tests were assessed at the beginning of each test day prior to drug injection. […]

[2] = test system: NMDA receptor; experiment: NMDA-induced thermal hyperalgesia (Hargreaves paw withdrawal latency) in rats with spinal subarachnoid transplants; assay type: in vivo, rat; conditions: for effect of antagonist pretreatment on NMDA dose-response curve, noxious thermal stimuli, compared to saline pretreatment: adrenal medullary transplanted animals, s.c. 20 min prior to NMDA (2.5, 5.0, 10.0 nmol), naloxone 2.0 mg/kg, phentolamine 10.0 mg/kg
Protocol: Experimental procedures were approved and carried out in accordance the Guidelines of the Animal Care Committee, University of Illinois at Chicago. Male Sprague-Dawley rats weighing 325-375 g (Sasco, Madison, Wis.) at the beginning of the study were used as both graft donors and recipients. Graft recipients were anesthetized (Nembutal, 40 mg/kg, i.p., supplemented as necessary) and implanted with intrathecal catheters according to methods described by Yaksh and Rudy [T. L. Yaksh and T. A. Rudy, Physiol. Behav., 17:1031-1036 (1976)]. Catheters were made of PE10 tubing with a knot sealed with dental acrylic at 7.5 cm. The catheters were threaded through a slit in the atlanto-occipital membrane to the lumbar spinal subarachnoid space, and the free ends were anchored to the skull using cyanoacrylate. Donor adrenal medullary tissue was dissected from cortical tissue and cut into small pieces (<0.5 cm^3). Adrenal medullary tissue from two adrenal glands was used as this amount was shown in previous studies to produce significant antinociception using several behavioral tests [A. T. Hama and J. Sagen, Pain, 52:223-231 (1993); J. Sagen et al., Pain, 42:69-79 (1990); H. Wang and J. Sagen, J. Neural Transplant. Plastic., 5:49-64 (1994)]. Control animals received equal volumes of striated muscle tissue from donors. Graft tissue was implanted in the spinal subarachnoid space via laminectomy at the level of the lumbar enlargement as described previously [J. Sagen et al., Brain Res., 384:189-194 (1986); J. Sagen et al., Pain, 42:69-79 (1990)]. Following surgical procedures, musculature was sutured (4-0 silk), and the skin closed with wound clips. Animals were housed individually and allowed food and water ad libitum.
as §1, with “allodynia. To assess response to a noxious thermal stimulus, rats were placed on an elevated glass floor beneath an inverted clear plastic cage, and a radiant heat source beneath the glass was aimed at the plantar surface of the hindpaw. The onset of light activated a timer which was terminated by a hindpaw withdrawal response.” for “allodynia.”
as §2

[3] = target: NMDA receptors; experiment: [3H]CGP-39653 saturation binding, cortical membranes; conditions: normal rat cortex; one-site binding
Protocol: (§3) Changes in NMDA receptor levels were determined at three weeks following nerve injury (one week following transplantation), as a marked distinction in responses to sensory stimuli between adrenal medullary and control transplanted animals can be made at this time point. […] [^3 H]CGP-39653 (D,L-(E)-2-amino-4-propyl-5-phosphono-3-pentenoate), a selective high-affinity competitive antagonist at NMDA receptors, was used to label the binding sites. In preliminary experiments, binding characteristics of this ligand were determined in the rat spinal cord. Saturation assays were performed on whole spinal cord tissue, and the results compared to those obtained in cortical membranes. NMDA binding sites were analyzed using previously described procedures with slight modification [M. A. Sills et al., Eur. J. Pharmacol., 192:19-24 (1991)]. Animals were decapitated and the spinal cords were rapidly extruded with saline pressure. […] This volume of tissue corresponded to approximately 110 μg of protein as determined using the Bradford method (BioRad, Richmond, Calif.). […] Nonspecific binding was determined in parallel tubes containing 100 mM L-glutamiate. […] Radioactivity was counted with a Beckman 3270 scintillation counter at 48-52% efficiency. Estimates of binding parameters were determined using the program LIGAND [P. J. Munson and D. Rodbard, Anal. Biochem., 197:220-239 (1980)].

[4] = target: NMDA receptors; experiment: [3H]CGP-39653 saturation binding, spinal cord membranes; conditions: normal rat whole spinal cord; one-site binding
Protocol: as §3

[5] = test system: NMDA receptor; experiment: NMDA-induced tactile allodynia (von Frey thresholds) in rats with spinal subarachnoid transplants; assay type: in vivo, rat; conditions: adrenal medullary transplanted animals; s.c. 20 min prior to NMDA (2.5, 5.0, 10.0 nmol); naloxone 2.0 mg/kg, phentolamine 10.0 mg/kg
Protocol: Experimental procedures were approved and carried out in accordance the Guidelines of the Animal Care Committee, University of Illinois at Chicago. Male Sprague-Dawley rats weighing 325-375 g (Sasco, Madison, Wis.) at the beginning of the study were used as both graft donors and recipients. Graft recipients were anesthetized (Nembutal, 40 mg/kg, i.p., supplemented as necessary) and implanted with intrathecal catheters according to methods described by Yaksh and Rudy [T. L. Yaksh and T. A. Rudy, Physiol. Behav., 17:1031-1036 (1976)]. Catheters were made of PE10 tubing with a knot sealed with dental acrylic at 7.5 cm. […]
as §1, §2

Row | SMILES | effect of antagonist pretreatment on NMDA dose-response curve, noxious mechanical stimuli, compared to saline pretreatment [1] | effect of antagonist pretreatment on NMDA dose-response curve, innocuous tactile stimuli, compared to saline pretreatment [5] | effect of antagonist pretreatment on NMDA dose-response curve, noxious thermal stimuli, compared to saline pretreatment [2] | further results
1 | CN[C@H](CC(=O)O)C(=O)O [NMDA, N-methyl-D-aspartate] | – | – | – | time of peak effect, mechanical hyperalgesia ([1]; intrathecal NMDA): 30 min; time to significant thermal hyperalgesia in control animals ([2]; 5 nmol NMDA i.t., control transplanted animals, P<0.05): ≤ 5 min; time of peak effect, thermal hyperalgesia ([2]; intrathecally administered NMDA, all cases): 30 min
2 | CCC/C(=C\C(N)C(=O)O)CP(=O)(O)O (racemic) [[^3 H]CGP-39653, D,L-(E)-2-amino-4-propyl-5-phosphono-3-pentenoate] | – | – | – | Kd [3]: 15.4 nM; Kd [4]: 12.9 ± 1.8 nM
3 | Cc1ccc(N(CC2=NCCN2)c2cccc(O)c2)cc1 [phentolamine] | significantly shifted the dose-response curves downward | significantly shifted the dose-response curves downward | significantly shifted the dose-response curves downward | –
4 | C=CCN1CC[C@]23c4c5ccc(O)c4O[C@H]2C(=O)CC[C@@]3(O)[C@H]1C5 [naloxone] | no effect | no effect | no effect | –
